Values of other authors in patent publication EP3263095A1, “A PHARMACEUTICAL FORMULATION OF OLAPARIB” (Zentiva K.S., priority 2016, dated 2018).

Settings: EMA/CHMP/789139/2014

- Group of the Biopharmaceutical Classification System (low solubility and bioavailability): Group 4
SMILES: O=C(c1cc(Cc2n[nH]c(=O)c3ccccc23)ccc1F)N1CCN(C(=O)C2CC2)CC1 [olaparib, 4-[(3-[(4-cyclopropylcarbonyl)piperazin-4-yl]carbonyl)-4-fluorophenyl]methyl(2H)-phtalazin-1-one]
